Among the data in BindingDB's records for doi:10.1016/j.ejmech.2023.115410 (Jawaharlal Nehru University, 2023) are IC50 values, retold here.

Test [1] is described as follows: Inhibition of avian Influenza A virus SN 33 (H1N1) neuraminidase infected in dog MDCK cells using MU-NANA as substrate assessed as reduction in viral replication incubated for 72 hrs by spectrofluorometric analysis.
Test [2] is described as follows: Inhibition of […] Influenza A Taiwan 3446 2002(H3N2) neuraminidase infected in dog MDCK cells using MU-NANA as substrate assessed as reduction in viral replication incubated for 72 hrs by spectrofluorometric analysis.

A word on the IC50: it is the concentration that inhibits the measured activity by half. Consider `CC(=O)N[C@H]1[C@H]([C@H](O)[C@H](O)CO)OC(C(=O)O)=C[C@@H]1NC(=N)NC(=O)CSc1ccc2ccccc2c1`, for which the IC50 stood at 20 nM in test [1] and 25 nM in test [2].

Consider `CC(=O)N[C@H]1[C@H]([C@H](O)[C@H](O)CO)OC(C(=O)O)=C[C@@H]1NC(=N)NC(=O)CCc1ccc2ccccc2c1`, for which the figures for the half-inhibitory concentration (IC50) in test [1] and in test [2] were 75 nM and 67 nM, respectively.
